From PMC8371461 (Frontiers in Pharmacology, 2021)

Legend:
RIOK2 = molecular target: RIOK2; design: method as in Varin et al., 2015; details: ref Varin et al., 2015; cited from earlier work
HeLa cells = assay: LC3B positive autophagosomes, immunofluorescent staining; assay type: cell-based; details: 10 µM, three days
Experimental: (§1) Cells were fixed with PBS containing 0.5% of para-formaldehyde for 15 min at room temperature. After three washing steps in PBS, cells were permeabilized with PBS containing 0.3% of Triton X-100 (Sigma) for 1 h at room temperature. After washing with PBS three times, cells were incubated overnight with the anti-LC3B antibody in PBS with 1% bovine serum albumin (Sigma) at 4°C. After three washing steps in PBS, cells were incubated with the fluorescent secondary antibody for 90 min at 4°C in PBS with 1% bovine serum albumin. They were then incubated with […] DAPI (Thermofisher) in PBS for 15 min. After washing with PBS, cells were rinsed once in water prior to mounting in the FluorSave reagent (Millipore).
(§2) Depending of these transitory environmental conditions, autophagy can either promote survival or apoptosis ([Degtyarev et al., 2008]). PIK/AKT pathway inhibition has been reported to increase cell autophagy ([Palmieri et al., 2017]). More specifically, PIP4K2C has been described as a down-regulator of autophagy ([Sharma et al., 2019]).

PSC = assay: as above; assay type: cell-based, mouse; details: 10 µM, three days
Experimental: as §1, §2

O=C(Cc1ccc(-c2ccccc2)cc1)Nc1ccccn1 [Diphenpyramide]
Kd (RIOK2): 160 nM

FC(F)(F)c1ccccc1-c1nc(NCc2cccs2)c2ccccc2n1 [NIH-12848]
number of LC3B-positive autophagosomes (HeLa cells): confirmed in HeLa cells

NC(=O)c1nc(Nc2ccccc2)sc1NC(=O)C1CCCCC1 [UNC-3230]
number of LC3B-positive autophagosomes (HeLa cells): increased
number of LC3B-positive autophagosomes (PSC): increased
